Our source for the IC50 values is publication PMC11345752, “In Situ Biofilm Affinity-Based Protein Profiling Identifies the Streptococcal Hydrolase GbpB as the Target of a Carolacton-Inspired Chemical Probe” (Journal of the American Chemical Society, 2024).

This experiment concerns the target T1, FolD (Escherichia coli, UniProt P24186).
T1 construct: purified E. coli FolD
Put plainly: dehydrogenase assay with purified FolD. Format: biochemical.

On to `COC(CC(=O)O)C(C)C(=O)C(C)/C=C(\C)C1OC(=O)C(O)C(O)C=CC(C)CCCC1C` (stereo not shown) [carolacton], for which it took 94 nM to reach half-maximal inhibition (IC50).

In general, IC50 refers to the point on the concentration scale where inhibition reaches its midpoint. Higher therefore signals a need for much substance.
